The text below walks through data of paper PMC11213709, “De novo design of proteins housing excitonically coupled chlorophyll special pairs” (Nature Chemical Biology, 2024).

Common to all, as to format: binding, synthetic construct
One assay has as its target T1, SP2.
T1 construct: de novo designed C2-symmetric homodimer, two ZnPPaM per dimer
The experiment in a line: X-ray crystal structure at […] Å; CD titration (Kd1 […], Kd2 […]); absorption titration (Kd1 […], Kd2 […]); fluorescence titration ([…]).

Another assay has as its target T2, SP3.
T2 construct: de novo designed C2-symmetric homodimer, two ZnPPaM per dimer
Briefly: CD titration (Kd1 […], Kd2 […]); absorption titration (Kd1 […], Kd2 […]); fluorescence titration ([…]).

For another assay, the target named is T3, SP1.
T3 construct: de novo designed C2-symmetric homodimer, two ZnPPaM per dimer
The experiment in a line: X-ray crystal structure at […] Å; absorption titration (Kd1 […], Kd2 […]); fluorescence titration ([…]).

SMILES strings stand for the structures.

Regarding `C=Cc1c(C)c2[n]3c1=CC1=NC(=Cc4c(C)c5c([n]4[Zn]3)C(=C3N=C(C=2)[C@@H](C)[C@@H]3CCC(=O)OC)[C@@H](C(=O)OC)C5=O)C(CC)=C1C` [ZnPPaM], the Kd (commonly the equilibrium constant for the complex coming apart) on SP2 stood at 300 nM; at SP3 it was 800 nM; on SP1, 290 nM.
